Measurements published in ChEMBL document CHEMBL2413072, “Synthesis and in vitro anticancer studies of novel C-2 arylidene congeners of lantadenes” (2013).

Legend:
Assay type in all cases: functional
HCT-15 = assay: Growth inhibition of human HCT15 cells assessed as cell growth at 10^-6 M by sulforhodamine B assay; details: read-out: Activity
IGROV-1 = assay: Growth inhibition of human IGROV1 cells by sulforhodamine B assay
SF-295 = assay: Growth inhibition of human SF295 cells assessed as cell growth at 10^-6 M by sulforhodamine B assay; details: read-out: Activity
NCI-H226 = assay: Growth inhibition of human NCI-H226 cells assessed as cell growth at 10^-7 M by sulforhodamine B assay; details: read-out: Activity
786-0 [1] = assay: Growth inhibition of human 786-0 cells assessed as cell growth at 10^-8 M by sulforhodamine B assay; details: read-out: Activity
Malme-3M = assay: Growth inhibition of human MALME-3M cells assessed as cell growth at 10^-7 M by sulforhodamine B assay; details: read-out: Activity
UO-31 [2] = assay: Growth inhibition of human UO31 cells assessed as cell growth at 10^-6 M by sulforhodamine B assay; details: read-out: Activity
SR = assay: Growth inhibition of human SR cells by sulforhodamine B assay
SF-268 = assay: Growth inhibition of human SF268 cells assessed as cell growth at 10^-7 M by sulforhodamine B assay; details: read-out: Activity
SK-OV-3 = assay: Growth inhibition of human SKOV3 cells assessed as cell growth at 10^-7 M by sulforhodamine B assay; details: read-out: Activity
OVCAR-5 = assay: Growth inhibition of human OVCAR5 cells assessed as cell growth at 10^-8 M by sulforhodamine B assay; details: read-out: Activity
UO-31 [3] = assay: Growth inhibition of human UO31 cells assessed as cell growth at 10^-8 M by sulforhodamine B assay; details: read-out: Activity
PC-3 [4] = assay: Growth inhibition of human PC3 cells assessed as cell growth at 10^-7 M by sulforhodamine B assay; details: read-out: Activity
MDA-MB-231 [5] = assay: Growth inhibition of human MDA-MB-231 cells assessed as cell growth at 10^-8 M by sulforhodamine B assay; details: read-out: Activity
[6] = Growth inhibition of human NCI-ADR-RES cells assessed as cell growth at 10^-4 M by sulforhodamine B assay; details: read-out: Activity
U-251 [7] = assay: Growth inhibition of human U251 cells by sulforhodamine B assay
K562 [8] = assay: Growth inhibition of human K562 cells assessed as cell growth at 10^-7 M by sulforhodamine B assay; details: read-out: Activity
PC-3 [9] = assay: Growth inhibition of human PC3 cells by sulforhodamine B assay
K562 [10] = assay: Growth inhibition of human K562 cells assessed as cell growth at 10^-6 M by sulforhodamine B assay; details: read-out: Activity
[11] = Growth inhibition of human HCC2998 cells assessed as cell growth at 10^-8 M by sulforhodamine B assay; details: HCC 2998, read-out: Activity
SF-539 = assay: Growth inhibition of human SF539 cells assessed as cell growth at 10^-7 M by sulforhodamine B assay; details: read-out: Activity
A498 = assay: Growth inhibition of human A498 cells assessed as cell growth at 10^-4 M by sulforhodamine B assay; details: read-out: Activity
[12] = Growth inhibition of human NCI-ADR-RES cells assessed as cell growth at 10^-8 M by sulforhodamine B assay; details: read-out: Activity
MDA-MB-468 = assay: Growth inhibition of human MDA-MB-468 cells assessed as cell growth at 10^-8 M by sulforhodamine B assay; details: read-out: Activity
MOLT-4 = assay: Growth inhibition of human MOLT4 cells assessed as cell growth at 10^-7 M by sulforhodamine B assay; details: read-out: Activity
OVCAR-8 = assay: Growth inhibition of human OVCAR8 cells assessed as cell growth at 10^-4 M by sulforhodamine B assay; details: read-out: Activity
U-251 [13] = assay: Growth inhibition of human U251 cells assessed as cell growth at 10^-6 M by sulforhodamine B assay; details: read-out: Activity
OVCAR-3 = assay: Growth inhibition of human OVCAR3 cells assessed as cell growth at 10^-4 M by sulforhodamine B assay; details: read-out: Activity
HOP-92 = assay: Growth inhibition of human HOP92 cells assessed as cell growth at 10^-6 M by sulforhodamine B assay; details: read-out: Activity
SW-620 = assay: Growth inhibition of human SW620 cells assessed as cell growth at 10^-6 M by sulforhodamine B assay; details: read-out: Activity
NCI-H522 [14] = assay: Growth inhibition of human NCI-H522 cells assessed as cell growth at 10^-6 M by sulforhodamine B assay; details: read-out: Activity
NCI-H322M [15] = assay: Growth inhibition of human NCI-H322M cells assessed as cell growth at 10^-7 M by sulforhodamine B assay; details: read-out: Activity
RXF 393 = assay: Growth inhibition of human RXF393 cells assessed as cell growth at 10^-7 M by sulforhodamine B assay; details: read-out: Activity
786-0 [16] = assay: Growth inhibition of human 786-0 cells assessed as cell growth at 10^-6 M by sulforhodamine B assay; details: read-out: Activity
MCF7 = assay: Growth inhibition of human MCF7 cells assessed as cell growth at 10^-6 M by sulforhodamine B assay; details: read-out: Activity
HCT-116 = assay: Growth inhibition of human HCT116 cells assessed as cell growth at 10^-8 M by sulforhodamine B assay; details: read-out: Activity
DU-145 = assay: Growth inhibition of human DU145 cells assessed as cell growth at 10^-6 M by sulforhodamine B assay; details: read-out: Activity
NCI-H322M [17] = assay: Growth inhibition of human NCI-H322M cells assessed as cell growth at 10^-6 M by sulforhodamine B assay; details: read-out: Activity
NCI-H522 [18] = assay: Growth inhibition of human NCI-H522 cells assessed as cell growth at 10^-8 M by sulforhodamine B assay; details: read-out: Activity
T47D = assay: Growth inhibition of human T47D cells assessed as cell growth at 10^-7 M by sulforhodamine B assay; details: read-out: Activity
786-0 [19] = assay: Growth inhibition of human 786-0 cells by sulforhodamine B assay
MDA-MB-231 [20] = assay: Growth inhibition of human MDA-MB-231 cells by sulforhodamine B assay
[21] = read-out: LC50 (the source's name)
[22] = read-out: pLC50 (the source's name) (converted)

SMILES: CC(C)=CC(=O)O[C@@H]1CC(C)(C)C[C@H]2C3=CC[C@@H]4[C@@]5(C)CC[C@H](O)C(C)(C)[C@@H]5CC[C@@]4(C)[C@]3(C)CC[C@@]12C(=O)O [Reduced Lantadene B]
- growth at 1 µM (HCT-15): 58%
- GI50 (IGROV-1; read-out: GI50): 6.35 µM
- CC50 (IGROV-1; [21]): > 100 µM
- TGI (IGROV-1; read-out: TGI): 29.4 µM
- GI50 (IGROV-1; read-out: pGI50 (converted)): 6.31 µM
- CC50 (IGROV-1; [22]): > 100 µM
- TGI (IGROV-1; read-out: pTGI (converted)): 29.5 µM
- growth at 1 µM (SF-295): 59%
- growth at 0.1 µM (NCI-H226): 88%
- growth at 0.01 µM (786-0 [1]): 97%
- growth at 0.1 µM (Malme-3M): 94%
- growth at 1 µM (UO-31 [2]): 89%
- GI50 (SR; read-out: GI50): 5.04 µM
- CC50 (SR; [21]): > 100 µM
- TGI (SR; read-out: TGI): 35.4 µM
- GI50 (SR; read-out: pGI50 (converted)): 5.01 µM
- CC50 (SR; [22]): > 100 µM
- TGI (SR; read-out: pTGI (converted)): 35.5 µM
- growth at 0.1 µM (SF-268): 93%
- growth at 0.1 µM (SK-OV-3): 103%
- growth at 0.01 µM (OVCAR-5): 95%
- growth at 0.01 µM (UO-31 [3]): 89%
- growth at 0.1 µM (PC-3 [4]): 90%
- growth at 0.01 µM (MDA-MB-231 [5]): 111%
- growth at 100 µM [6]: -30%
- GI50 (U-251 [7]; read-out: GI50): 2.62 µM
- CC50 (U-251 [7]; [21]): 71.6 µM
- TGI (U-251 [7]; read-out: TGI): 16.7 µM
- GI50 (U-251 [7]; read-out: pGI50 (converted)): 2.63 µM
- CC50 (U-251 [7]; [22]): 70.8 µM
- TGI (U-251 [7]; read-out: pTGI (converted)): 16.6 µM
- growth at 0.1 µM (K562 [8]): 91%
- GI50 (PC-3 [9]; read-out: GI50): 3.6 µM
- CC50 (PC-3 [9]; [21]): 64 µM
- TGI (PC-3 [9]; read-out: TGI): 21.9 µM
- GI50 (PC-3 [9]; read-out: pGI50 (converted)): 3.63 µM
- CC50 (PC-3 [9]; [22]): 64.6 µM
- TGI (PC-3 [9]; read-out: pTGI (converted)): 21.9 µM
- growth at 1 µM (K562 [10]): 69%
- growth at 0.01 µM [11]: 99%
- growth at 0.1 µM (SF-539): 98%
- growth at 100 µM (A498): -90%
- growth at 0.01 µM [12]: 107%
- growth at 0.01 µM (MDA-MB-468): 92%
- growth at 0.1 µM (MOLT-4): 94%
- growth at 100 µM (OVCAR-8): -40%
- growth at 1 µM (U-251 [13]): 73%
- growth at 100 µM (OVCAR-3): -83%
- growth at 1 µM (HOP-92): 70%
- growth at 1 µM (SW-620): 87%
- growth at 1 µM (NCI-H522 [14]): 78%
- growth at 0.1 µM (NCI-H322M [15]): 89%
- growth at 0.1 µM (RXF 393): 95%
- growth at 1 µM (786-0 [16]): 93%
- growth at 1 µM (MCF7): 88%
- growth at 0.01 µM (HCT-116): 99%
- growth at 1 µM (DU-145): 94%
- growth at 1 µM (NCI-H322M [17]): 94%
- growth at 0.01 µM (NCI-H522 [18]): 92%
- growth at 0.1 µM (T47D): 95%
- GI50 (786-0 [19]; read-out: GI50): 3.06 µM
- CC50 (786-0 [19]; [21]): 50.7 µM
- TGI (786-0 [19]; read-out: TGI): 11.5 µM
- GI50 (786-0 [19]; read-out: pGI50 (converted)): 3.09 µM
- CC50 (786-0 [19]; [22]): 51.3 µM
- TGI (786-0 [19]; read-out: pTGI (converted)): 11.5 µM
- GI50 (MDA-MB-231 [20]; read-out: GI50): 4.56 µM
- CC50 (MDA-MB-231 [20]; [21]): 54.7 µM
- TGI (MDA-MB-231 [20]; read-out: TGI): 19.4 µM
- GI50 (MDA-MB-231 [20]; read-out: pGI50 (converted)): 4.57 µM
- CC50 (MDA-MB-231 [20]; [22]): 55 µM
- TGI (MDA-MB-231 [20]; read-out: pTGI (converted)): 19.5 µM
